The text below walks through data of US8993622B2, “Antiviral compounds” (Eirium AB, priority 2010, dated 2015).

For orientation: EC50 means the concentration needed to bring the measured effect to its halfway point. Broadly, the CC50 is the concentration that lowers cell viability or growth by half.

Read-outs that look alike come from different tables or passages of the source.

Data set [1] has as its system Ad5. In words: microbe, parasite or virus in culture. Conditions: for inhibition at 5 µM: A549, read-out: % Inh. at 5 μM; for inhibition at 15 µM: A549, read-out: % Inh. at 15 μM. The data set is classed as cell-based, human adenovirus.
Data set [2] deals with cells. In words: Cellular toxicity of select compounds (% dead cells, CC50). The class given is cell-based. As to conditions: 24 h.
Data set [3] has as its system coxsackievirus A24 variant (CVA24v). In words: Coxsackievirus fluorescent focus assay in HCE cells. The class given is cell-based. Details: key: +++: No visible fluorescence was observed; ++: some infected cells were detected. As to conditions: 18 h. How it is done:
Approximately 2×10^5 human corneal epithelial (HCE) cells were plated in 24-well plates the day prior infection. On the day of infection the media was removed and was replaced with media containing 70 virus particles of CVA24v per cell and serial dilutions of compound 35j, ranging from 50- to 6.25 μM. After 18 h of incubation at 37° C. in 5% CO2, the cells were fixed using ice-cold 100% methanol for 5 min. Thereafter, the cells were incubated with a monoclonal mouse anti-VP1 structural protein antibody (clone 5-D8/1, DakoCytomation) diluted 1:200 in PBS, for 1 h in RT. The cells were then washed with PBS and incubated with FITC labeled anti-mouse secondary antibody (DakoCytomation), diluted 1:100 for 1 h, RT, in the dark. Further, unbound antibody was washed away in PBS and the cells were examined in fluorescent microscope.

Data set [4] can be described thus: Cellular toxicity of select compounds (% dead cells, CC50). The class given is cell-based. As to conditions: conclusions.

`O=C(Nc1ccc(Cl)cc1C(=O)Nc1ccccc1C(=O)O)c1ccccc1F` [Compound 35g, 2-[5-chloro-2-(2-fluorobenzoylamino)-benzoylamino]benzoic acid]: in data set [1] (unidentified adenovirus, A549), the response was half-maximal at 680 nM (EC50). For the same compound, in data set [1] (unidentified adenovirus), the inhibition at 5 µM came out at 89 ± 2% and the inhibition at 15 µM turned out to be 91 ± 2%. Besides, in data set [2], the “Toxicity at 30 μM (% dead cells after 24 h)” value worked out at 11 ± 7% and the “Toxicity at 60 μM (% dead cells after 24 h)” value was determined as 24 ± 9%.
The like results for `COc1ccc(C(=O)Nc2ccccc2C(=O)O)c(NC(=O)c2ccccc2F)c1` [Compound 35h, 2-[4-methoxy-2-(2-fluorobenzoylamino)-benzoylamino]benzoic acid] were, in that order, 1500 nM, 92 ± 3%, 89 ± 6%, 10 ± 15% and 18 ± 15%.
The compound `COc1ccc(NC(=O)c2ccccc2F)c(C(=O)Nc2ccccc2C(=O)O)c1` [Compound 35i, 2-[5-methoxy-2-(2-fluorobenzoylamino)-benzoylamino]benzoic acid] registered an EC50 in data set [1] (unidentified adenovirus, A549) of 1400 nM. In addition, in data set [1] (unidentified adenovirus), the inhibition at 5 µM turned out to be 91 ± 6% and the inhibition at 15 µM stood at 97 ± 1%. In addition, in data set [2], the “Toxicity at 30 μM (% dead cells after 24 h)” value is 18 ± 12% and the “Toxicity at 60 μM (% dead cells after 24 h)” value was determined as 28 ± 12%.
The compound `O=C(Nc1cc(F)c(F)cc1C(=O)Nc1ccccc1C(=O)O)c1ccccc1F` [Compound 35j, 2-[4,5-difluoro-2-(2-fluorobenzoylamino)-benzoylamino]benzoic acid] came in with a toxicity/activity selectivity index in data set [1] (CC50/EC50) of 890. Further, the EC50 was determined as 300 nM in data set [1] (Human adenovirus sp., A549, read-out: EC50-value) and 270 nM in data set [1] (unidentified adenovirus, A549). Moreover, the inhibition at 5 µM in data set [1] (unidentified adenovirus) amounted to 94 ± 3%. Moreover, the inhibition at 15 µM in data set [1] (unidentified adenovirus) amounted to 93 ± 2%. In addition, the “Relative inhibition of CVA24v” value is reported as “++” in data set [3] (6.25 μM), “++” in data set [3] (12.5 μM), “+++” in data set [3] (25 μM) and “+++” in data set [3] (50 μM). Besides, the midpoint of cytotoxicity in data set [4], the CC50, lay at 240000 nM. Also, the “Toxicity at 30 μM (% dead cells after 24 h)” value in data set [2] amounted to 6 ± 4%. For the same compound, the “Toxicity at 60 μM (% dead cells after 24 h)” value in data set [2] worked out at 16 ± 9%.
